Earlier results on six compounds are cited in PubChem BioAssay AID1259409 (Chemical Carcinogenesis Research Information System (CCRIS), 2018).

The subject of this data set is rodent chemically induced tumor inhibition, incidence and multiplicity. As to the kind of experiment: CCRIS tumor inhibitor studies.

As to `COc1ccc2cc3[n+](cc2c1OC)CCc1cc2c(cc1-3)OCO2`, the “tumour outcome (control, treated, inhibition, significance)” value is, setting by setting: (Carcinogen: METHYLCHOLANTHRENE, 56-49-5, Dose [Inhibitor]: 0, 0.5 MG/KG BW BY GAVAGE 3/WK FOR 8 WK (STUDY DURATION: 180 D), Route [Inhibitor]: ORAL, Species: MOUSE, Strain/Sex: SWISS/MALE, Target Tissue: Type of Lesion: SKIN: SARCOMA, Dose [Carcinogen]: 200 UG/ANIMAL ONCE 5 D POST INHIBITOR TREATMENT) 100%, 40%, 60%, not calculated; (Carcinogen: METHYLCHOLANTHRENE, 56-49-5, Dose [Inhibitor]: 0, 2.5 MG/KG BW BY GAVAGE 3/WK FOR 8 WK (STUDY DURATION: 180 D), Route [Inhibitor]: ORAL, Species: MOUSE, Strain/Sex: SWISS/MALE, Target Tissue: Type of Lesion: SKIN: SARCOMA, Dose [Carcinogen]: 200 UG/ANIMAL ONCE 5 D POST INHIBITOR TREATMENT) 100%, 47%, 53%, not calculated; (Carcinogen: METHYLCHOLANTHRENE, 56-49-5, Dose [Inhibitor]: 0, 5 MG/KG BW BY GAVAGE 3/WK FOR 8 WK (STUDY DURATION: 180 D), Route [Inhibitor]: ORAL, Species: MOUSE, Strain/Sex: SWISS/MALE, Target Tissue: Type of Lesion: SKIN: SARCOMA, Dose [Carcinogen]: 200 UG/ANIMAL ONCE 5 D POST INHIBITOR TREATMENT) 100%, 67%, 33%, not calculated; (Carcinogen: N,N-DIETHYLNITROSAMINE, 55-18-5, Dose [Inhibitor]: 0, 10 MG/KG BW BY GAVAGE 5 D/WK FOR 141 D (STUDY DURATION: 30 WK), Route [Inhibitor]: ORAL, Species: RAT, Strain/Sex: WISTAR/FEMALE, Target Tissue: Type of Lesion: LIVER: TUMOR, Dose [Carcinogen]: 0.02% IN DISTILLED WATER BY GAVAGE 5 D/WK FOR 20 WK BEGINNING 1 D POST INHIBITOR FIRST DOSE) 100%, 100%, 0%, not significant; (Carcinogen: N,N-DIETHYLNITROSAMINE, 55-18-5, Dose [Inhibitor]: 0, 25 MG/KG BW BY GAVAGE 5 D/WK FOR 141 D (STUDY DURATION: 30 WK), Route [Inhibitor]: ORAL, Species: RAT, Strain/Sex: WISTAR/FEMALE, Target Tissue: Type of Lesion: LIVER: TUMOR, Dose [Carcinogen]: 0.02% IN DISTILLED WATER BY GAVAGE 5 D/WK FOR 20 WK BEGINNING 1 D POST INHIBITOR FIRST DOSE) 100%, 50%, 50%, not significant; (Carcinogen: N,N-DIETHYLNITROSAMINE, 55-18-5, Dose [Inhibitor]: 0, 50 MG/KG BW BY GAVAGE 5 D/WK FOR 141 D (STUDY DURATION: 30 WK), Route [Inhibitor]: ORAL, Species: RAT, Strain/Sex: WISTAR/FEMALE, Target Tissue: Type of Lesion: LIVER: TUMOR, Dose [Carcinogen]: 0.02% IN DISTILLED WATER BY GAVAGE 5 D/WK FOR 20 WK BEGINNING 1 D POST INHIBITOR FIRST DOSE) 100%, 50%, 50%, not significant.

On to `Nc1nc(N)c2nc(CNc3ccc(C(=O)N[C@@H](CCC(=O)O)C(=O)O)cc3)cnc2n1`, for which the “tumour outcome (control, treated, inhibition, significance)” value is 90%, 74%, 18%, not significant (Carcinogen: URETHANE, 51-79-6, Dose [Inhibitor]: 0.25 UG/G BW IN DISTILLED WATER 1/D FOR 3 D FOLLOWED BY 0.5 UG/G BW ONCE ADMINISTERED AT SAME TIME AS CARCINOGEN TREATME, Route [Inhibitor]: INTRAPERITONEAL, Species: MOUSE, Strain/Sex: SWR/MALE, Target Tissue: Type of Lesion: LUNG: ADENOMA, Dose [Carcinogen]: 0.5 MG/G BW IN DISTILLED WATER ONCE AT 13 WK OF AGE, Promoter: NONE USED) and 82%, 90%, -10%, not significant (Carcinogen: URETHANE, 51-79-6, Dose [Inhibitor]: 0.25 UG/G BW IN DISTILLED WATER 1/D FOR 3 D FOLLOWED BY 0.5 UG/G BW ONCE ADMINISTERED AT SAME TIME AS CARCINOGEN TREATME, Route [Inhibitor]: INTRAPERITONEAL, Species: MOUSE, Strain/Sex: SWR/MALE, Target Tissue: Type of Lesion: LUNG: ADENOMA, Dose [Carcinogen]: 0.5 MG/G BW IN DISTILLED WATER ONCE AT 15 WK OF AGE, Promoter: NONE USED).

Consider `S=C=Nc1cccc2ccccc12`, for which the “tumour outcome (control, treated, inhibition, significance)” value (Carcinogen: 2-AMINO-3-METHYLIMIDAZO[4,5-B]PYRIDINE (PHIP) [105650-23-5), Dose [Inhibitor]: DIET, Route [Inhibitor]: 400 PPM ADMINISTERED FROM 42 TO 66 D OF AGE, Species: RAT, Strain/Sex: SPRAGUE-DAWLEY/FEMALE, Target Tissue: Type of Lesion: MAMMARY, CARCINOMA, Dose [Carcinogen]: 85 MG/KG BW 8 TIMES OVER 11 D, STARTING 1 WK AFTER ANIT FEEDING (STUDY DURATION: 24 WKS)) is given as 56.3%, 6.7%, 88.1%, p<0.001.

With `CCC(C)C(NC(=O)C(C)NC(=O)C(Cc1cnc[nH]1)NC(=O)C1CCCN1C(=O)CNC(=O)C(CC(C)C)NC(=O)C(CC(C)C)NC(=O)C(Cc1ccc(O)cc1)NC(=O)CNC(=O)C(C)NC(=O)C(CO)NC(=O)C(CC(N)=O)NC(=O)C(CC(C)C)NC(=O)C(NC(=O)C(Cc1c[nH]c2ccccc12)NC(=O)CN)C(C)O)C(=O)NC(CC(=O)O)C(=O)NC(CC(N)=O)C(=O)NC(Cc1c[nH]cn1)C(=O)NC(CCCNC(=N)N)C(=O)NC(CO)C(=O)NC(Cc1ccccc1)C(=O)NC(Cc1cnc[nH]1)C(=O)NC(CC(=O)O)C(=O)NC(CCCCN)C(=O)NC(Cc1ccc(O)cc1)C(=O)NCC(=O)NC(CC(C)C)C(=O)NC(C)C(N)=O` (stereo not given), the “tumour outcome (control, treated, inhibition, significance)” value is recorded as 15/19 (79%), 7/19 (37%), 53%, p<0.05 (Carcinogen: AZOXYMETHANE, 25843-45-2, Dose [Inhibitor]: 0, 4 UG/KG BW IN OLIVE OIL 1/2 D FOR DURATION OF STUDY (STUDY DURATION: 45 WK), Route [Inhibitor]: SUBCUTANEOUS, Species: RAT, Strain/Sex: WISTAR/MALE, Target Tissue: Type of Lesion: COLON: ADENOMA OR ADENOCARCINOMA, Dose [Carcinogen]: 7.4 MG/KG BW IN 0.9% SALINE 1/WK FOR 10 WK, Promoter: NONE USED); 10/20 (50%), 10/20 (50%), 0%, not significant (Carcinogen: N-METHYL-N'-NITRO-N-NITROSOGUANIDINE, 70-25-7, Dose [Inhibitor]: 0, 2 UG/KG BW IN OLIVE OIL 1/2 WK FOR 26 WK BEGINNING POST CARCINOGEN TREATMENT (STUDY DURATION: 52 WK), Route [Inhibitor]: SUBCUTANEOUS, Species: RAT, Strain/Sex: WISTAR/MALE, Target Tissue: Type of Lesion: STOMACH: ADENOCARCINOMA, Dose [Carcinogen]: 50 UG/ML IN DRINKING WATER FOR 25 WK, Promoter: NONE USED); 10/20 (50%), 3/20 (15%), 70%, p<0.01 (Carcinogen: N-METHYL-N'-NITRO-N-NITROSOGUANIDINE, 70-25-7, Dose [Inhibitor]: 0, 4 UG/KG BW IN OLIVE OIL 1/2 WK FOR 26 WK BEGINNING POST CARCINOGEN TREATMENT (STUDY DURATION: 52 WK), Route [Inhibitor]: SUBCUTANEOUS, Species: RAT, Strain/Sex: WISTAR/MALE, Target Tissue: Type of Lesion: STOMACH: ADENOCARCINOMA, Dose [Carcinogen]: 50 UG/ML IN DRINKING WATER FOR 25 WK, Promoter: NONE USED).

Take `O=C(CCCN=C=S)c1cccnc1`: the “tumour outcome (control, treated, inhibition, significance)” value is 100%, 96%, 4%, not significant (Carcinogen: 4-(METHYLNITROSAMINO)-1-(3-PYRIDYL)-1-BUTANONE, 64091-91-4, Dose [Inhibitor]: 0, 5 UMOL 1/D FOR 4 D ADMINISTERED PRIOR TO CARCINOGEN DOSE (STUDY DURATION: 116 D), Route [Inhibitor]: GAVAGE, Species: MOUSE, Strain/Sex: STRAIN-A, Target Tissue: Type of Lesion: LUNG: ADENOMA, Dose [Carcinogen]: 10 UMOL IN SALINE ADMINISTERED 2 HR POST LAST AGENT DOSE, Promoter: NONE USED) and 100%, 96%, 4%, not calculated (Carcinogen: 4-(N-NITROSOMETHYLAMINO)-1-(3-PYRIDYL)-1-BUTANONE, 64091-91-4, Dose [Inhibitor]: 0, 5 UMOL/D FOR 4 CONSECUTIVE DAYS (STUDY DURATION: 16.5 WK), Route [Inhibitor]: GAVAGE, Species: MOUSE, Strain/Sex: STRAIN-A/FEMALE, Target Tissue: Type of Lesion: LUNG: ADENOMA, Dose [Carcinogen]: 10 UMOL ONCE 2 HR POST LAST AGENT DOSE, Promoter: NONE USED).

Consider `C=CC(C)(O)CC/C=C(\C)CCC=C(C)C` (stereo not given), for which the “tumour outcome (control, treated, inhibition, significance)” value (Carcinogen: AZOXYMETHANE, 25843-45-2, Dose [Inhibitor]: 0, 5 MG/G IN DIET FOR 22 WK BEGINNING 3 D POST LAST CARCINOGEN DOSE (STUDY DURATION: 25 WK), Route [Inhibitor]: ORAL, Species: RAT, Strain/Sex: F344/MALE, Target Tissue: Type of Lesion: DUODENUM: ADENOCARCINOMA, Dose [Carcinogen]: 15 MG/KG BW 2/WK FOR 3 WK, Promoter: NONE USED) is reported as 50%, 26%, 48%, not significant.
